The target in test [1] is Cyclin-dependent kinase 8/19 (Homo sapiens, UniProt P49336+Q9BWU1). To be noted: ST-2.
Description: Inhibition of CDK8/CDK19 in ST2 cells by alkaline phosphatase activity assay
Test [2] has as its system CWR22R. The test can be described thus: Antitumor activity against human 22Rv1 cells expressing AR-V7 xenografted in male nude mouse assessed as suppression of tumor growth at 133 mg/kg, administered once a day for 20 days. It counts as functional, organism-based.
Test [3] concerns CWR22R. The test can be described thus: Antitumor activity against human 22Rv1 cells expressing AR-V7 xenografted in male nude mouse assessed as suppression of tumor growth at 66 mg/kg, administered twice a day for 20 days. The class given is functional, organism-based.
The test system of test [4] is Myc-CaP. The test can be described thus: Antiproliferative activity against murine castration-resistant Myc-CaP cells at 1 uM assessed as growth inhibition relative to control. The class given is functional. To be noted: Mus musculus.
For test [5], the system named is Myc-CaP. The test can be described thus: Antiproliferative activity against murine castration-resistant Myc-CaP cells at 1 uM assessed as growth inhibition in presence of 5 uM enzalutamide relative to control. To be noted: Mus musculus. It counts as functional.
Test [6] concerns Myc-CaP. The test can be described thus: Inhibition of colony formation in murine castration-resistant Myc-CaP cells at 1 uM by clonogenic assay. The class given is functional. Particulars: Mus musculus.
Test [7] concerns Myc-CaP. The test can be described thus: Inhibition of colony formation in murine castration-resistant Myc-CaP cells at 1 uM in presence of 5 uM enzalutamide by clonogenic assay relative to control. It counts as functional. To be noted: Mus musculus.
Test [8] concerns 4T1. The test can be described thus: Antitumor activity against murine 4T1 cells xenografted in mouse assessed as suppression of tumor volume at 50 mg/kg, po. The class given is functional, organism-based.

Structures are written as SMILES. The source made the active and inactive calls. The rule behind the calls is not given here.

Chain of Cyclin-dependent kinase 8/19 (P49336 whole entry, looked up): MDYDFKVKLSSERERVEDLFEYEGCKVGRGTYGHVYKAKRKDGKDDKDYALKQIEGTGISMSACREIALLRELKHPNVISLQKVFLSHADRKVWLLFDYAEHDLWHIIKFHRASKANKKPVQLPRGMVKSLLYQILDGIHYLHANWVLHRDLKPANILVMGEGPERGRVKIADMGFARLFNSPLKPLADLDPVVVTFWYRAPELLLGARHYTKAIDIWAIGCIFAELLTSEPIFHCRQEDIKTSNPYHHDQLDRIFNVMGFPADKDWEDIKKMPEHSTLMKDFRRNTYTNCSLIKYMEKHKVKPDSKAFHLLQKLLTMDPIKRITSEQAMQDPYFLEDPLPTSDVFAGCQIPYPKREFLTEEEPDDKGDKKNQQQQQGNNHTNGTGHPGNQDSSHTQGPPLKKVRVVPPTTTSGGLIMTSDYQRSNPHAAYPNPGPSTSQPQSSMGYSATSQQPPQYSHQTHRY
Chain of Cyclin-dependent kinase 8/19 (Q9BWU1 whole entry, looked up): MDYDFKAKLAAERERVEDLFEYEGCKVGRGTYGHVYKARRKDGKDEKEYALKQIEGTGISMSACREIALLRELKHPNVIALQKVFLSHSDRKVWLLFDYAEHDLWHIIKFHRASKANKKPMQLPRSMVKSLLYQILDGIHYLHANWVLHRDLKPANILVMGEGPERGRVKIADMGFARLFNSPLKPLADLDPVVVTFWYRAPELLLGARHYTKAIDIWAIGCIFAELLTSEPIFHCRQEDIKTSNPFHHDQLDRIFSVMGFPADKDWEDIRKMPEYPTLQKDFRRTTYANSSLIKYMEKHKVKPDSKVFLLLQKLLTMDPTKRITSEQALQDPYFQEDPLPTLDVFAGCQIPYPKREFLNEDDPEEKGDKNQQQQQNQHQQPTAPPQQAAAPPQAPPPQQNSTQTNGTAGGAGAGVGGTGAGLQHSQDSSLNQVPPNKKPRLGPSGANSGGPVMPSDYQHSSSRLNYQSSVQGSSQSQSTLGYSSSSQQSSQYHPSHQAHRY

On to `CN(C)C(=O)Cc1ccc(N2CCCN(c3ccnc4sc(C(N)=O)c(N)c34)CC2)cc1`, for which the EC200 in test [1] was determined as 6.6 nM.

With `Cc1ccc(N2CCCN(c3ccnc4sc(C(N)=O)c(N)c34)CC2)cc1`, in test [1], the EC200 came out at 88.1 nM.

For the compound `CN1CCN(C(=O)c2ccc3cc(CCNc4ncnc5ccc(C#N)cc45)ccc3c2)CC1` [SENEXIN B], the result in test [2], in test [3], in test [4], in test [5] and in test [8] was Active. In addition, the inhibition result in test [6] and in test [7] was “Active” in each case.

`CNC(=O)c1ccc(N2CCCN(c3ccnc4sc(C(N)=O)c(N)c34)CC2)cc1`: the EC200 in test [1] worked out at 54.2 nM.

For the compound `COc1ccc(N2CCCN(c3ccnc4sc(C(N)=O)c(N)c34)CC2)cc1`, the EC200 in test [1] was found to be 115 nM.
